# Experimental data from patent US6114373A, “N-acetyl-5,6-dimethoxytryptamine and its free radical scavenging activity” (priority 1998, dated 2000).
# Entries after “also recorded” stand apart in the source; their conditions may differ.
# How the values were obtained:
# [1] = Hydroxyl radical scavenging: DMPO-HO. adduct formation (H2O2 + UV) measured by HPLC-EC; format: biochemical
# Source text: The hydroxyl radical (HO^.cndot.) is the most reactive and cytotoxic species among free radicals. […] Because of its high reactivity, HO^.cndot. once formed either in vitro or in vivo lasts for a very short time (half life about 10^-9 s) and, therefore, HO^.cndot. cannot be measured directly. However, by using a spin trapping agent, in this case 5,5-dimethylpyrroline-N-oxide (DMPO), an adduct (DMPO-HO^.cndot.) is formed between the spin trapping agent and the HO^.cndot.. The adducts have a longer half life and therefore they can be more readily quantified.
# When DMPO is incubated in this system the DMPO will traps the HO^.cndot. to form a relatively stable DMPO- HO^.cndot. adduct.
# HO^.cndot. +DMPO→DMPO-HO^.cndot.
# In the present study, the DMPO-HO^.cndot. adduct was detected by an electro-chemical (EC) detector attached to a high performance liquid chromatography (HPLC) system. […] The applied potential was 1.0 volt and volume of the injected sample was 20 μl.
# [2] = system: KA-induced neurobehavioral activities and death in mice; experiment: Neurobehavioral activities and death induced by kainic acid in mice; format: in vivo, mice (male CD2-FI); settings: for Incidence, Seizures / Incidence, Tail arch / Incidence, Tremors / Incidence, Death (death rate): KA 40 mg/kg s.c., compound I or melatonin 5 mg/kg i.p. 10 min before KA, n=15; for Incidence, Seizures / Incidence, Tail arch / Incidence, Tremors: 4 h observation
# Description: (§1) Kainic acid (KA) was employed to test the in vivo free radical scavenging and antioxidant activities of compound I. KA is an excitatory neurotoxin which destroys neuronal cells by free radical generation (Coyle and Schwarcz, Nature 263: 244-246 1976). Male CD2-FI mice (26-30 g) were chosen as the experimental subject. The mice were housed in windowless room with automatically regulated temperature 22±2° C. and 14 h light/10 h dark cycle. The mice received standard laboratory chow and water ad libitum. The mice were randomized into 4 groups.
# Immediately following the injections, neurobehavioral changes were monitored. The observation period extended for 4 hours following the injections. The death rate at 48 hours was recorded. […] By contrast, all of the mice that received KA developed some neurobehavioral changes including arching of tail, tremors and seizures. The death rate in this group was 33%. […] Tremors and seizures decreased from 100% in the KA-treated mice to 40% (p=0.001), respectively,and the death rate was reduced to 20%.
# [3] = system: brain lipid proxidation (MDA+4-HDA) in cerebral cortex; experiment: Brain oxidative damage test: lipid peroxidation product (LPO; MDA+4-HDA) in cerebral cortex of KA-treated mice; format: in vivo, mice (male CD2-FI); settings: for level of LPO in brain (in words): KA 40 mg/kg s.c. plus compound I or melatonin 5 mg/kg i.p., 48 h, FIG. 5
# Description: as §1
# Forty-eight hours after treatment, 5 mice of each group were sacrificed and the cerebral cortex was excised and immediately placed on dry ice and stored at -80° C. for the lipid prooxidation product (LPO) assay. LPO is the most commonly used index of free radical damage and the assay used to measure the level of LPO is described in a kit avaliable from Calbiochem (LA Jolla, Calif.). LPO was expressed as malondialdehyde (MDA) and 4-hydroxyalkenals (4-HDA)/mg protein. The level of LPO in the cerebral cortex of mice in the control group was 3.47=0.18 nmol/mg protein; in KA injected mice the level of LPO was increased to 4.42=0.11 nmol/mg protein. This increase, when compared to the control mice, was great than 27% (p<0.05).
# [4] = system: pyramidal neurons in the hippocampal CA3 area; experiment: Morphological observations of hippocampus of KA-treated mice (light microscopy); format: in vivo, mice (male CD2-FI); settings: seven days following treatment; KA 40 mg/kg s.c. with or without 5 mg/kg compound I or melatonin; hematoxylin and eosin
# Description: as §1
# Seven days following the treatment, representive mice in each of the groups mentioned above were sacrificed. The brains were immersed in normal fixation buffer. The hippocampi and surrounding tissue were dissected from the whole brain, cut and stained with hematoxylin and eosin. The morphological assessment of neuronal damage was determined by using light microscopy. In the brains of control mice no visible neuronal damage was observed. […] The induced neuronal damage was concentrated in the hippocampal CA3 area. The total histological architecture of CA3 area was altered. Virtually all of the pyrimadal neurons in this area were destroyed. The cell membranes appeared to have disintegrated and the nuclei of the cells were condensed and pyknotic. These changes are consistent with cell death. […] Few damaged neurons were observed microcopically in this area in these two groups (FIG. 6).
# [5] = background statement; cited from earlier work
# [6] = system: experimental animal life span; settings: Pierpaoli and Regelson, Proc. Natl. Acad. Sci. USA 91: 787-791 1994; up to; cited from earlier work
SMILES,"suppression of DMPO-HO. adduct formation (in words) ([1]; compared with melatonin, FIG. 3, dose-response, FIG. 4)","IC50 ([1]; read-out: IC50 (concentration required to produce 50% inhibition of the DMPO-HO. formation), H2O2 + UV (254 nm), DMPO spin trap, HPLC-EC) [µM]","Incidence, Seizures [2] [%]","Incidence, Tail arch [2] [%]","Incidence, Tremors [2] [%]","Death (in words) ([2]; at 48 hours, KA 40 mg/kg s.c. plus compound I 5 mg/kg i.p.)","Incidence, Death (death rate) ([2]; at 48 hours) [%]",level of LPO in brain (in words) [3],"morphological assessment of neuronal damage, hippocampal CA3 area [4]",biological half life in the blood [5],prolongation of experimental animal life span [6],"increase of LPO level compared to control mice ([3]; 48 h after KA 40 mg/kg s.c., p<0.05) [%]"
"COc1cc2[nH]cc(CCNC(C)=O)c2cc1OC [Compound I, N-acetyl-5,6-dimethoxytryptamine]",efficacy is greater than that of melatonin,15,20,40,40,none of them died,0,reduced to control levels,No obviously neuronal damage is observed; also recorded: the hippocampal CA3 area of the brain was still intact,–,–,–
COc1ccc2[nH]cc(CCNC(C)=O)c2c1 [melatonin],–,–,40,33,40,–,20,reduced to control levels,No obviously neuronal damage is observed; also recorded: the hippocampal CA3 area of the brain was still intact,20-40 min,up to 27%,–
C=C(C)[C@H]1CN[C@H](C(=O)O)[C@H]1CC(=O)O [KA],–,–,100,86,100,–,33,–,The morphological architecture of neurons in the hippocampal CA3 region were destroyed; also recorded: the pyramidal neurons of the hippocampus were severely damaged,–,–,> 27
